What all share (assay type): biochemical
One assay deals with T1, CDKL4(h) (Homo sapiens, UniProt Q5MAI5).
T1 construct: purchased Eurofins (KinaseProfiler)
Kind of assay: radiometric kinase assay (KinaseProfiler, Eurofins), CDKL4. As to conditions: in vitro radiometric kinase assay, tested at 1 nM to 10 000 nM, no pre-incubation; read-out: inhibitory activities (IC50 values) CDKL4. The protocol:
(§1) The compounds were profiled in the radiometric assays (KinaseProfiler, Eurofins).
(§2) Briefly, kinases were diluted in the buffer shown below prior to addition to the reaction mix: • CDKL3, TAF1L: 20 mM Tris/HCl pH 8.5, 0.2 mM EDTA, 0.1% β-mercaptoethanol, 0.01% Brij-35, 5% glycerol, 1 mg/ml BSA; • Haspin: 15 mM MOPS, 0.75 mM EDTA, 0.0075% Brij-35, 3.75% Glycerol, 150 mM NaCl, 0.1% β-mercaptoethanol, 1 mg/mLBSA; • CDKL4, CLK2, PIM1, TRB2: […], 1 mM EDTA, 0.01% Brij-35, 5% Glycerol, 0.1% β-mercaptoethanol, 1 mg/mL BSA.
(§3) All compounds were prepared to 50x final assay concentration in 100% DMSO. This working stock of the compound was added to the assay well as the first component in the reaction, followed by the remaining components as detailed in the general assay protocols below. There was no pre-incubation step between the compound and the kinase prior to initiation of the reaction.
CDKL4(h) was incubated with 8 mM MOPS pH 7.0, 0.2 mM EDTA, 250 µM RRRFRPASPLRGPPK (SEQ ID NO. 1), 10 mM magnesium acetate and γ-^33P-ATP (specific activity and concentration as required). The reaction was initiated by the addition of the Mg/ATP mix. After incubation for 120 minutes at room temperature, the reaction was stopped by the addition of phosphoric acid to a concentration of 0.5%. An aliquot of the stopped reaction was spotted onto a filter and washed four times for 4 minutes in 0.425% phosphoric acid and once in methanol prior to drying and scintillation counting.
(§4) Kinase activity data were expressed as the percent remaining kinase activity in tested samples compared to the vehicle (DMSO) reactions. The compounds were tested at the following concentrations: 1 nM, 3 nM, 10 nM, 30 nM, 100 nM, 300 nM, 1000 nM, 3000 nM, and 10 000 nM; IC50 values and curve fits were then obtained.

The next assay deals with T2, CLK2 (h) (Homo sapiens, UniProt P49760).
T2 construct: purchased Eurofins (KinaseProfiler)
T2 sequence (P49760 whole entry): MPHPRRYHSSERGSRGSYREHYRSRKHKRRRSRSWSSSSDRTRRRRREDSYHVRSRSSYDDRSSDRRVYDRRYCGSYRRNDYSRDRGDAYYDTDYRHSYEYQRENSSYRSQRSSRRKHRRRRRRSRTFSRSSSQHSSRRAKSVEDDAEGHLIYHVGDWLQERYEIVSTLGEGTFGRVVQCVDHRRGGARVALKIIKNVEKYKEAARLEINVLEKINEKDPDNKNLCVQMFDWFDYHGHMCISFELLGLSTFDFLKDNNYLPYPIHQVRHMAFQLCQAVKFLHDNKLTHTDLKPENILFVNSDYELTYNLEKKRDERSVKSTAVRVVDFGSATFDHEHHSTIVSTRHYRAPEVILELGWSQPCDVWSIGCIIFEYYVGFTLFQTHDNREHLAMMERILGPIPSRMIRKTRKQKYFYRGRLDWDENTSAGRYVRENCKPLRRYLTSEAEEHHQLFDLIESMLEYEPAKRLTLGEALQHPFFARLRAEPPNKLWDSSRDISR
Kind of assay: radiometric kinase assay (KinaseProfiler, Eurofins), CLK2. To be noted: in vitro radiometric kinase assay, tested at 1 nM to 10 000 nM, no pre-incubation; read-out: inhibitory activities (IC50 values) CLK2. The protocol:
as §1, §2, §3
CLK2 (h) was incubated with 8 mM MOPS pH 7.0, 0.2 mM EDTA, 20 µM […](p)EDEEE (SEQ ID NO. 2), 10 mM magnesium acetate and γ-^33P-ATP (specific activity and concentration as required). The reaction was initiated by the addition of the Mg/ATP mix. After incubation for 40 minutes at room temperature, the reaction was stopped by the addition of phosphoric acid to a concentration of 0.5%. An aliquot of the reaction was then spotted onto a filter and washed four times for 4 minutes in 0.425% phosphoric acid and once in methanol prior to drying and scintillation counting.
as §4

A further assay addresses T3, Haspin (h) (Homo sapiens, UniProt Q8TF76).
T3 construct: purchased Eurofins (KinaseProfiler)
T3 sequence (Q8TF76 1-798): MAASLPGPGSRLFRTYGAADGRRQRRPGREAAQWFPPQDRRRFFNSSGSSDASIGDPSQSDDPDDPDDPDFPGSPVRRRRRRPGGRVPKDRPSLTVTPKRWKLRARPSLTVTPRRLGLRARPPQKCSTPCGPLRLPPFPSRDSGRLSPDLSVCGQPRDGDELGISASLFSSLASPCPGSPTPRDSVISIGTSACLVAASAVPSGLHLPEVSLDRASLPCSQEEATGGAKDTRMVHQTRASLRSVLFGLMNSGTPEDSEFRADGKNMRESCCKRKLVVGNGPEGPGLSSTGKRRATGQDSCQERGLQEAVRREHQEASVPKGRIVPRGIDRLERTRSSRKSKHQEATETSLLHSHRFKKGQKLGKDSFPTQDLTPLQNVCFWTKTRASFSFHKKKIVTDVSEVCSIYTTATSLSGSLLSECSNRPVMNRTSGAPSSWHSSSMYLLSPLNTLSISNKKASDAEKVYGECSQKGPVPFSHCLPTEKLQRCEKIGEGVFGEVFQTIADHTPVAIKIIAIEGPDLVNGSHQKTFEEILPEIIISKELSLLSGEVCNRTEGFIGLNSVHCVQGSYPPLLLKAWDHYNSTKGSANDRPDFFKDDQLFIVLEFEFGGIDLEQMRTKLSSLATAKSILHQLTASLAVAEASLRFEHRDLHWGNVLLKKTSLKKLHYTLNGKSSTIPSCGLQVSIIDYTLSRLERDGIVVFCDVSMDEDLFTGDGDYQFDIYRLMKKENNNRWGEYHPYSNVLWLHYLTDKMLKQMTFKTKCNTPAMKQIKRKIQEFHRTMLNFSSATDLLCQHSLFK
Nature of the assay: radiometric kinase assay (KinaseProfiler, Eurofins), Haspin. To be noted: in vitro radiometric kinase assay, tested at 1 nM to 10 000 nM, no pre-incubation; read-out: inhibitory activities (IC50 values) Haspin. The protocol:
as §1, §2, §3
Haspin (h) was incubated with 8 mM MOPS pH 7.0, 0.2 mM EDTA, 500 µM RARTLSFAEPG (SEQ ID NO. 3), 10 mM magnesium acetate and γ-^33P-ATP (specific activity and concentration as required). The reaction was initiated by the addition of the Mg/ATP mix. After incubation for 40 minutes at room temperature, the reaction was stopped by the addition of phosphoric acid to a concentration of 0.5%. An aliquot of the reaction was then spotted onto a filter and washed four times for 4 minutes in 0.425% phosphoric acid and once in methanol prior to drying and scintillation counting.
as §4

The target of the next assay is T4, PIM1 (h) (Homo sapiens, UniProt P11309).
T4 construct: purchased Eurofins (KinaseProfiler)
T4 sequence (P11309 whole entry): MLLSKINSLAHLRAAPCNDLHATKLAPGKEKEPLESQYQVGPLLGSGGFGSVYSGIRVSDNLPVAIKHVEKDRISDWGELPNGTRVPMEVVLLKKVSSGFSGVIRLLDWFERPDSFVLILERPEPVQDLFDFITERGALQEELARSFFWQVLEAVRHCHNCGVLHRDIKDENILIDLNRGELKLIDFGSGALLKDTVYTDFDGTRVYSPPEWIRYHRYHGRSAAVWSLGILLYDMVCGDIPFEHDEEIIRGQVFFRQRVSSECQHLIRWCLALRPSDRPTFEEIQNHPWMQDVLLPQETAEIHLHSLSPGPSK
Nature of the assay: radiometric kinase assay (KinaseProfiler, Eurofins), PIM1. To be noted: in vitro radiometric kinase assay, tested at 1 nM to 10 000 nM, no pre-incubation; read-out: inhibitory activities (IC50 values) PIM1. How it is done: as §1, §2, §3
PIM1 (h) was incubated with 8 mM MOPS pH 7.0, 0.2 mM EDTA, 100 µM KKRNRTLTV (SEQ ID NO. 4), 10 mM magnesium acetate and γ-^33P-ATP (specific activity and concentration as required). The reaction was initiated by the addition of the Mg/ATP mix. After incubation for 40 minutes at room temperature, the reaction was stopped by the addition of phosphoric acid to a concentration of 0.5%. An aliquot of the reaction was then spotted onto a filter and washed four times for 4 minutes in 0.425% phosphoric acid and once in methanol prior to drying and scintillation counting.
as §4

T1 sequence (Q5MAI5 whole entry): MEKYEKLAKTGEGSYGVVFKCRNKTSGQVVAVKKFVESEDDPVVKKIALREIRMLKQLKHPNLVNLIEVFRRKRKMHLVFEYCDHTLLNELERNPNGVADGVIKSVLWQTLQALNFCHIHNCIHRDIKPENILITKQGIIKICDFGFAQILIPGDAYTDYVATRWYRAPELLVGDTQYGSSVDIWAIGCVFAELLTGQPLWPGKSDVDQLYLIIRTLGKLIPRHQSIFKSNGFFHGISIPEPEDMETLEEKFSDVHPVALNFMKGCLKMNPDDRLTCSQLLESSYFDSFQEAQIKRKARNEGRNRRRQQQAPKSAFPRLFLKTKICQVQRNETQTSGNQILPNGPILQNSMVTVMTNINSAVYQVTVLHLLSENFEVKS

`Cn1cc(-c2ccc3scc(-c4ccnc(C#N)c4)c3n2)cn1`: the concentration for half-maximal inhibition (IC50) – broadly, the concentration that inhibits the measured activity by half – fell in the range of 100 to 499 nM on CDKL4(h), 3000 to 10000 nM on CLK2 (h), 100 to 499 nM on Haspin (h) and 500 to 3000 nM on PIM1 (h).
Consider `Cn1cc(-c2ccc3scc(-c4cnn(Cc5ccccc5)c4)c3n2)cn1`, for which the IC50 at CDKL4(h) was in the range of 100 to 499 nM; on CLK2 (h) it was 3000 to 10000 nM; on Haspin (h) it was 100 to 499 nM; at PIM1 (h) it was 20 to 99 nM.
As for `Cn1cc(-c2ccc3scc(-c4ccccc4)c3n2)cn1` [Preparative Example 2, 5-(1-methyl-1H-pyrazol-4-yl)-3-phenylthieno[3,2-b]pyridine], the half-inhibitory concentration (IC50) on CDKL4(h) lay in the range of 100 to 499 nM; on CLK2 (h), 3000 to 10000 nM; on Haspin (h), 100 to 499 nM; on PIM1 (h), 500 to 3000 nM.
On to `Cn1cc(-c2ccc3scc(C4=CCNCC4)c3n2)cn1` [Preparative Example 9, 5-(1-methyl-1H-pyrazol-4-yl)-3-(1,2,3,6-tetrahydropyridin-4-yl)-thieno[3.2-b]pyridine], for which the IC50 was in the range of 500 to 3000 nM on CDKL4(h), 3000 to 10000 nM on CLK2 (h), 500 to 3000 nM at Haspin (h) and 500 to 3000 nM at PIM1 (h).
Take `Cn1cc(-c2ccc3scc(-c4cccnc4)c3n2)cn1` [Preparative Example 11, 5-(1-methyl-1H-pyrazol-4-yl)-3-(pyridin-3-yl)thieno[3,2-b]pyridine]: the IC50 is 500 to 3000 nM at CDKL4(h), 3000 to 10000 nM on CLK2 (h), 500 to 3000 nM on Haspin (h) and 500 to 3000 nM at PIM1 (h).
With `Cn1cc(-c2ccc3scc(-c4ccncc4)c3n2)cn1` [Preparative Example 13, 5-(1-methyl-1H-pyrazol-4-yl)-3-(pyridin-4-yl)thieno[3,2-b]pyridine], the IC50 at CDKL4(h) lay within 100 to 499 nM; on CLK2 (h), 3000 to 10000 nM; at Haspin (h), 20 to 99 nM; at PIM1 (h), 100 to 499 nM.
Consider `Cc1cc(-c2csc3ccc(-c4cnn(C)c4)nc23)ccn1` [Preparative Example 15, 5-(1-methyl-1H-pyrazol-4-yl)-3-(2-methylpyridin-4-yl)-thieno[3,2-b]pyridine], for which the half-maximal inhibitory concentration (IC50) on CDKL4(h) fell in the range of 100 to 499 nM; on CLK2 (h), 500 to 3000 nM; on Haspin (h), 100 to 499 nM; at PIM1 (h) it was 100 to 499 nM.
For the molecule `COc1cc(-c2csc3ccc(-c4cnn(C)c4)nc23)ccn1` [Preparative Example 17, 3-(2-methoxypyridin-4-yl)-5-(1-methyl-1H-pyrazol-4-yl)thieno[3.2-b]pyridine], the IC50 fell in the range of 100 to 499 nM at CDKL4(h), 500 to 3000 nM on CLK2 (h), 100 to 499 nM on Haspin (h) and 100 to 499 nM at PIM1 (h).
Regarding `Cn1cc(-c2ccc3scc(-c4ccnc(F)c4)c3n2)cn1` [Preparative Example 22, 3-(2-fluoropyridin-4-yl)-5-(1-methyl-1H-pyrazol-4-yl)thieno[3,2-b]pyridine], the IC50 at CDKL4(h) lay in the range of 100 to 499 nM; on CLK2 (h), 3000 to 10000 nM; at Haspin (h), 100 to 499 nM; at PIM1 (h) it was 100 to 499 nM.
As for `Cn1cc(-c2ccc3scc(-c4ccnc(CN)c4)c3n2)cn1` [Preparative Example 28, (4-(5-(1-methyl-1H-pyrazol-4-yl)thieno[3,2-b]pyridin-3-yl)pyridin-2-yl)methanamine], the concentration for half-maximal inhibition (IC50) on CDKL4(h) is 500 to 3000 nM; on CLK2 (h) it was 3000 to 10000 nM; at Haspin (h), 20 to 99 nM; at PIM1 (h), 100 to 499 nM.
Regarding `Cc1cc(-c2csc3ccc(-c4cnn(C)c4)nc23)cc(C)n1` [Preparative Example 30, 3-(2,6-dimethylpyridin-4-yl)-5-(1-methyl-1H-pyrazol-4-yl)thieno-[3,2-b]pyridine], the 50% inhibitory concentration (IC50) at CDKL4(h) is 100 to 499 nM; on CLK2 (h), 3000 to 10000 nM; at Haspin (h), 100 to 499 nM; at PIM1 (h), 100 to 499 nM.
Take `Cc1cnccc1-c1csc2ccc(-c3cnn(C)c3)nc12` [Preparative Example 32, 5-(1-methyl-1H-pyrazol-4-yl)-3-(3-methylpyridin-4-yl)thieno[3,2-b]pyridine]: the half-inhibitory concentration (IC50) was 500 to 3000 nM on CDKL4(h), 3000 to 10000 nM at CLK2 (h), 3000 to 10000 nM on Haspin (h) and 500 to 3000 nM at PIM1 (h).
As to `Cn1cc(-c2ccc3scc(-c4ccncc4C#N)c3n2)cn1` [Preparative Example 34, 4-(5-(1-methyl-1H-pyrazol-4-yl)thieno[3,2-b]pyridin-3-yl)nicotino-nitrile], the 50% inhibitory concentration (IC50) at CDKL4(h) lay in the range of 3000 to 10000 nM; on CLK2 (h), 3000 to 10000 nM; at Haspin (h), 500 to 3000 nM; on PIM1 (h) it was 500 to 3000 nM.
With `Cn1cc(-c2ccc3scc(-c4ccncc4F)c3n2)cn1` [Preparative Example 36, 3-(3-fluoropyridin-4-yl)-5-(1-methyl-1H-pyrazol-4-yl)thieno[3,2-b]pyridine], the half-inhibitory concentration (IC50) is 100 to 499 nM on CDKL4(h), 500 to 3000 nM on CLK2 (h), 100 to 499 nM on Haspin (h) and 100 to 499 nM at PIM1 (h).
In the case of `Cn1cc(-c2ccc3scc(-c4ccnnc4)c3n2)cn1` [Preparative Example 40, 5-(1-methyl-1H-pyrazol-4-yl)-3-(pyridazin-4-yl)thieno[3,2-b]-pyridine], the IC50 on CDKL4(h) lay in the range of 500 to 3000 nM; on CLK2 (h), 3000 to 10000 nM; at Haspin (h), 100 to 499 nM; on PIM1 (h), 500 to 3000 nM.
Take `Cn1cc(-c2ccc3scc(-c4ccc5ncnn5c4)c3n2)cn1` [Preparative Example 53, 3-([1,2,4]-triazolo[1,5-a]pyridin-6-yl)-5-(1-methyl-1H-pyrazol-4-yl)thieno[3,2-b]pyridine]: the IC50 lay in the range of 100 to 499 nM on CDKL4(h), 500 to 3000 nM at CLK2 (h), 20 to 99 nM on Haspin (h) and 100 to 499 nM at PIM1 (h).
Take `Cn1cc(-c2ccc3scc(-c4cnn(C)c4)c3n2)cn1` [Preparative Example 63, 3,5-bis(1-methyl-1H-pyrazol-4-yl)thieno[3,2-b]pyridine]: the half-maximal inhibitory concentration (IC50) at CDKL4(h) lay in the range of 100 to 499 nM; at CLK2 (h), 500 to 3000 nM; on Haspin (h) it was 100 to 499 nM; at PIM1 (h), 100 to 499 nM.

Values taken from EP4483954A1 (Masarykova Univerzita, priority 2023, dated 2025).
